Laboratory results published in patent US9056844B2, “4-substituted-3-benzyloxy-bicyclo[3.1.0]hexane compounds as mGluR 2/3 antagonists” (Eli Lilly and Company, priority 2010, dated 2015).

Key:
[1] = molecular target: T1, human mGlu2 receptors (Homo sapiens, UniProt Q14416); test: mGlu2 receptor cAMP antagonist assay; type: cell-based; settings: reversal of DCG IV (EC90) inhibition of forskolin-stimulated cAMP; AV12 cells
T1 construct: expressed in transfected cells; host or cells: AV12 cells, co-expressing rat EAAT1
Description: (§1) mGlu2 and mGlu3 Receptor cAMP Antagonist Assays
Antagonist activity is assayed in recombinant AV12 cells stably expressing human mGlu2 or mGlu3 receptors and the rat glutamate transporter EAAT1 (Excitatory Amino Acid Transporter 1). The cell lines are maintained by culturing in DMEM with high glucose and pyridoxine hydrochloride supplemented with 5% dialyzed fetal bovine serum (FBS), 1 mM sodium pyruvate, 1 mM HEPES and 1 mM L-glutamine; geneticin and hygromycin B are used as selection antibiotics.
Reversal of the inhibition of forskolin-stimulated cAMP production by test compounds is measured using homogeneous time resolved fluorescence technology (HTRF; Cisbio cat #62AM4PEB). The medium is removed and the cells are incubated with 100 μl cAMP stimulation buffer (STIM) for 30 minutes at 37° C. […] Cells are incubated at 37° C. for 20 minutes. To measure the cAMP levels, cAMP-d2 conjugate and anti cAMP-cryptate conjugate in lysis buffer are incubated with the treated cells at room temperature for 1 hour (mGlu2) or 1.5 hour (mGlu3). […] The raw data are converted to cAMP amount (pmole/well) using a cAMP standard curve generated for each experiment. Relative IC50 values are calculated from the top-bottom range of the concentration response curve using a four-parameter logistic curve fitting program (ActivityBase v5.3.1.22).

[2] = molecular target: T2, human mGlu3 receptors (Homo sapiens, UniProt Q14832); test: mGlu3 receptor cAMP antagonist assay; type: cell-based; settings: reversal of DCG IV (EC90) inhibition of forskolin-stimulated cAMP; AV12 cells
T2 construct: expressed in transfected cells; host or cells: AV12 cells, co-expressing rat EAAT1
Description: as §1
Antagonist activity is assayed in recombinant AV12 cells stably expressing human mGlu2 or mGlu3 receptors and the rat glutamate transporter EAAT1 (Excitatory Amino Acid Transporter 1). The cell lines are maintained by culturing in DMEM with high glucose and pyridoxine hydrochloride supplemented with 5% dialyzed fetal bovine serum (FBS), 1 mM sodium pyruvate, 1 mM HEPES and 1 mM L-glutamine; geneticin and hygromycin B are used as selection antibiotics. Confluent cultures are grown at 37° C. in an atmosphere containing 6.5% CO2, and passaged biweekly. Cells are harvested using 0.25% trypsin, suspended in freeze media (FBS with 10% DMSO) at 10^7 cells/ml, and aliquots are stored in liquid nitrogen. Twenty-four hours before the assay, cells are plated at a density of 8,000-10,000 cells per well in a tissue culture treated, 96-well, half-area black plates (Costar 3875) in 50 μl of DMEM with high glucose and pyridoxine hydrochloride supplemented with 5% dialyzed FBS, 1 mM sodium pyruvate, 1 mM HEPES, 100 μg/ml ampicillin, and 250 μM (mGlu2) or 125 μM (mGlu3) of L-glutamine.
Reversal of the inhibition of forskolin-stimulated cAMP production by test compounds is measured using homogeneous time resolved fluorescence technology (HTRF; Cisbio cat #62AM4PEB). The medium is removed and the cells are incubated with 100 μl cAMP stimulation buffer (STIM) for 30 minutes at 37° C. (STIM buffer contains 500 ml HBSS, 1000 ml DPBS, 0.034% BSA, 1.67 mM HEPES and 500 μM IBMX (Sigma 15879).) Compounds are tested in 10-point concentration response curves using 3× serial dilution followed by further 40-fold dilution into STIM buffer. DCG IV (Tocris 0975) serves as the reference agonist. The final reaction mixture contains 1 μM (for mGlu2) or 3 μM (for mGlu3) of forskolin (Sigma F6886), DCG IV at its EC90, and up to 25 μM of test compound. Cells are incubated at 37° C. for 20 minutes. To measure the cAMP levels, cAMP-d2 conjugate and anti cAMP-cryptate conjugate in lysis buffer are incubated with the treated cells at room temperature for 1 hour (mGlu2) or 1.5 hour (mGlu3). The HTRF signal is detected using an EnVision plate reader (Perkin-Elmer) to calculate the ratio of fluorescence at […]. The raw data are converted to cAMP amount (pmole/well) using a cAMP standard curve generated for each experiment. Relative IC50 values are calculated from the top-bottom range of the concentration response curve using a four-parameter logistic curve fitting program (ActivityBase v5.3.1.22).

[3] = molecular target: T3, human mGlu6 receptor (Homo sapiens, UniProt O15303); test: mGlu6 cAMP antagonist assay (reference agonist L-AP4); type: cell-based; settings: cAMP format
T3 construct: expressed in transfected cells; host or cells: AV12 cells, co-expressing rat EAAT1
From the text: FLIPR and cAMP Assays for mGlu Receptor Selectivity
The relative antagonist potencies of the compounds of the invention for the other human mGlu receptors can be assessed with either a cAMP assay or fluorometric calcium response assay (see for example Fell et al., JPET (in press)). Briefly, individual AV12 cell lines containing the rat EAAT1 glutamate transporter and stably expressing the human mGlu1, 2, 3, 4, 5, 6, & 8 receptors are used for these studies. The mGlu1 and 5 receptors are […], so they naturally signal through phospholipase C, producing a calcium flux response which can be used to measure receptor activation using a Fluorometric Imaging Plate Reader (FLIPR, Molecular Devices). The cell lines expressing the mGlu2, 3, 4, and 8 receptor are designed to express the Gα15 subunit so that these Gi-coupled receptors will generate a calcium flux response similar to the mGlu1 and 5 receptor expressing cell lines. The mGlu6 receptor is tested in a cAMP format using methods analogous to those developed for mGlu2 and mGlu3 above. These cell lines are maintained as previously described except that amounts of L-glutamine and selection agents (geneticin, hygromycin B, zeocin, and blasticidin) may vary depending on the cell line. Confluent cultures are passaged biweekly.
Antagonist activity in mGlu6 cells is measured using cAMP in a method analogous to that described above for mGlu2 and mGlu3 activity, except that the reference agonist was L-AP4 (Tocris). […] Relative IC50 and EC50 values are calculated from the top-bottom range of the concentration response curve using a four-parameter logistic curve fitting program (ActivityBase v5.3.1.22).

[4] = tested on: male NIH-Swiss mice; test: Forced-swim test in mice (mFST); type: in vivo, mouse; settings: for ED60: Mus musculus, immobility in last 4 min of 6 min; for Maximal Decrease (1 − compound/control) * 100%: immobility time
From the text: Forced-Swim Test in Mice (mFST)
mFST is an established in vivo assay for antidepressant activity (Li et al. J Pharmacol Exp Ther. 319(1):254-9, 2006.). […] The mFST was used to evaluate potential antidepressant-like activity of novel mGlu2/3 antagonists essentially as described in previously published methods (see for example, Li et al. J Pharmacol Exp Ther. 319(1):254-9, 2006.). Briefly, male NIH-Swiss mice (Harlan Sprague-Dawley, Indianapolis, Ind.) weighing between 25-30 g are used. Group housed animals are removed from the vivarium to the testing area in their own cages and allowed to adapt to the new environment for at least 1 hour before testing. Compounds where R^1 and R^2 are both hydrogen are dissolved in water with minimal NaOH added for dissolution and are administered i.p. Compounds where R^1 and/or R^2 are other than hydrogen are prepared on the day of use in 2.0-2.5% N-methyl-pyrrolidinone and then suspended in 1% HEC, 0.25% Tween 80, and 0.05% Dow antifoam, and administered orally. Mice are placed in a cylinder (diameter: 10 cm; height: 25 cm) filled with 6 cm of water (22-25° C.) for 6 min. The duration of immobility during the last 4 min. of the 6 min. period of the test was scored. A mouse is recorded as immobile when floating motionless or making only those movements necessary to keep its head above water.

[5] = tested on: mice; test: mFST with SSRI (fluoxetine combination); type: in vivo, mouse; settings: Example 10 17 mg/kg p.o., fluoxetine 10 mg/kg i.p., alone or combined
Description: mFST is an established in vivo assay for antidepressant activity (Li et al. J Pharmacol Exp Ther. 319(1):254-9, 2006.). […] J Pharmacol Exp Ther. 319(1):254-9, 2006.). Briefly, male NIH-Swiss mice (Harlan Sprague-Dawley, Indianapolis, Ind.) weighing between 25-30 g are used. Group housed animals are removed from the vivarium to the testing area in their own cages and allowed to adapt to the new environment for at least 1 hour before testing. Compounds where R^1 and R^2 are both hydrogen are dissolved in water with minimal NaOH added for dissolution and are administered i.p. […] Mice are placed in a cylinder (diameter: 10 cm; height: 25 cm) filled with 6 cm of water (22-25° C.) for 6 min. The duration of immobility during the last 4 min. of the 6 min. period of the test was scored. A mouse is recorded as immobile when floating motionless or making only those movements necessary to keep its head above water. The compounds of the invention may also be tested in combination with other compounds useful for the treatment of depressive disorders, as for example SSRI's, for their ability to enhance the antidepressant-like effects over that of either compound alone.

T2 sequence (Q14832 23-879): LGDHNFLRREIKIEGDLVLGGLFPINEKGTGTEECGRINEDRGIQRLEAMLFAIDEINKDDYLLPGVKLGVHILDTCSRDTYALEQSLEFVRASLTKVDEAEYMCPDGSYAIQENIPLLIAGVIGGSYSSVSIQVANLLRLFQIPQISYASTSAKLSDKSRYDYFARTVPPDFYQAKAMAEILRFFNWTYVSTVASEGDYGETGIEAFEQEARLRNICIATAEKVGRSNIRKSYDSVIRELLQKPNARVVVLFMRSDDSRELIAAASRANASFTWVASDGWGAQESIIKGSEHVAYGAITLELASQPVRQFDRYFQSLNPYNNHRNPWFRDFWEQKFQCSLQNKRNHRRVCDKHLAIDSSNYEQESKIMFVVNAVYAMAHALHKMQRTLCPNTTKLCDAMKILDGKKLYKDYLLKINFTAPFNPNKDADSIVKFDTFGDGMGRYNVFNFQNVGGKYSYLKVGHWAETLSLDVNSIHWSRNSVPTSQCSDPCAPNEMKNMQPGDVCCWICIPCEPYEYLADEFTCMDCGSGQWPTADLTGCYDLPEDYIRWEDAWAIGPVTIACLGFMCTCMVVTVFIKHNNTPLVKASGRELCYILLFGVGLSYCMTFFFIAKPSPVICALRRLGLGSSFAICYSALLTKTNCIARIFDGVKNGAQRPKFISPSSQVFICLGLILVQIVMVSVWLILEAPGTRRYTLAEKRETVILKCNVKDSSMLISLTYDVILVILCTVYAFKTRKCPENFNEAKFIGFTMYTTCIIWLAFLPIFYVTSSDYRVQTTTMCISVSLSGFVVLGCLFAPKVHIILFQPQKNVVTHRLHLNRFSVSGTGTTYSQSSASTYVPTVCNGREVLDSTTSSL
T3 sequence (O15303 25-877): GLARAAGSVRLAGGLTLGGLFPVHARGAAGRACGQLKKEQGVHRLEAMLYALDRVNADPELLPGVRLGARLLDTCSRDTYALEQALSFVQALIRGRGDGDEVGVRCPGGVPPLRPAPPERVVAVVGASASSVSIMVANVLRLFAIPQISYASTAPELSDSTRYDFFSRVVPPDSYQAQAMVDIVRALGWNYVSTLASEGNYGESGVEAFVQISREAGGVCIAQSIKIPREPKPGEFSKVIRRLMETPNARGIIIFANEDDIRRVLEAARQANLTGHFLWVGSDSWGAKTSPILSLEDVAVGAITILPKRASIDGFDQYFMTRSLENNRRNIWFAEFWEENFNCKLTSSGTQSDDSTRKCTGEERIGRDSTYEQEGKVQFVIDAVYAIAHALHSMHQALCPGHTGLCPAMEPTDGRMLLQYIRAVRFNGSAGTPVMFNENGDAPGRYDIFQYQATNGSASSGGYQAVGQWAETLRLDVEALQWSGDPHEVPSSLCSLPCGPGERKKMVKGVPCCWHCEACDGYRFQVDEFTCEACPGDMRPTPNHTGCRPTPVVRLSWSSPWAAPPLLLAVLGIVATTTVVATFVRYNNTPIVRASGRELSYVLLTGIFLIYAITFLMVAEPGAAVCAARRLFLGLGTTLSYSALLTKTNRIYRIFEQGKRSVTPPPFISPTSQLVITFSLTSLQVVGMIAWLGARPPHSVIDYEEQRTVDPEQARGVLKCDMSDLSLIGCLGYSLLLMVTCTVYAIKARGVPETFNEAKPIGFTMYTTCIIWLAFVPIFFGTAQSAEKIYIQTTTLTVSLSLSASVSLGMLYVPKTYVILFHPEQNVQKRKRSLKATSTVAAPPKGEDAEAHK
T1 sequence (Q14416 19-872): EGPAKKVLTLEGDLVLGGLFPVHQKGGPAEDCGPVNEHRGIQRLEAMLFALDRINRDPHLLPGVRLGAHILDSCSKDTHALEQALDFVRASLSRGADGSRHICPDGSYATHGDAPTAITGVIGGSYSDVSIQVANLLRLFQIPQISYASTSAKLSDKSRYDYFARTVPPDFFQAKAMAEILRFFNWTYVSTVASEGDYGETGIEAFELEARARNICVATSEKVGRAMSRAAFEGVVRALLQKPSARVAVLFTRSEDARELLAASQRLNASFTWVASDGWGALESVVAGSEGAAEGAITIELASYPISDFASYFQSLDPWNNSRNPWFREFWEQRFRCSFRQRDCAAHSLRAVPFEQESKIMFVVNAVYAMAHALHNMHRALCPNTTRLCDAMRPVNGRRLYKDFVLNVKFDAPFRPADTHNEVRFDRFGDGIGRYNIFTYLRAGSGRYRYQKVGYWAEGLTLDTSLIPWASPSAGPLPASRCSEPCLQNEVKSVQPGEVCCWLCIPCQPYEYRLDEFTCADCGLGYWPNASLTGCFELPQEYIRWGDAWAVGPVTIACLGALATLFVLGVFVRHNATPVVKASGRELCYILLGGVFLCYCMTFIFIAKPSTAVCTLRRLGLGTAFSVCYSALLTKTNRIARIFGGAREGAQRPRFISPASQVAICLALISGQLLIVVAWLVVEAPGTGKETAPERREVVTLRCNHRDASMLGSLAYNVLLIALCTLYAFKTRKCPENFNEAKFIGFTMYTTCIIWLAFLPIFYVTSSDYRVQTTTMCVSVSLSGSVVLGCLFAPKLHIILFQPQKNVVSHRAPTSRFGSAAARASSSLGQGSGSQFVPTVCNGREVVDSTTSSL

Compound `N[C@]1(C(=O)O)[C@@H]2[C@@H](C(=O)O)[C@@H]2[C@H](Sc2nccs2)[C@H]1OCc1ccc(Cl)c(Cl)c1` [Example 3, (1R,2R,3S,4S,5R,6R)-2-Amino-3-[(3,4-dichlorobenzyl)oxy]-4-(1,3-thiazol-2-ylsulfanyl)bicyclo[3.1.0]hexane-2,6-dicarboxylic acid] has an IC50 [1] of 25.4 ± 4.8 nM, an IC50 [2] of 10.8 nM and an IC50 [3] of 2480 ± 295 nM. The ED60 ([4]; ip) was 8.2 mg/kg and the “Maximal Decrease (1 − compound/control) * 100%” value ([4]; i.p.) was 47%.

`COC(=O)N[C@H]1[C@H]2[C@H](C(=O)O)[C@H]2[C@](N)(C(=O)O)[C@@H]1OCc1ccc(Cl)c(Cl)c1` [Example 5, (1S,2R,3R,4S,5R,6S)-2-Amino-3-[(3,4-dichlorobenzyl)oxy]-4-[(methoxycarbonyl)amino]bicyclo[3.1.0]hexane-2,6-dicarboxylic acid] showed an IC50 [1] of 16.8 ± 1.6 nM, an IC50 [2] of 9.5 ± 4.6 nM and an IC50 [3] of 1580 ± 141 nM. For the same compound, the ED60 ([4]; ip) was 7.45 mg/kg and the “Maximal Decrease (1 − compound/control) * 100%” value ([4]; i.p.) was 56%.

Compound `Cl.Cn1ncnc1S[C@H]1[C@H]2[C@H](C(=O)O)[C@H]2[C@](N)(C(=O)O)[C@@H]1OCc1ccc(Cl)c(Cl)c1` [Example 6, (1R,2R,3S,4S,5R,6R)-2-amino-3-[(3,4-dichlorobenzyl)oxy]-4-[(1-methyl-1H-1,2,4-triazol-5-yl)sulfanyl]bicyclo[3.1.0]hexane-2,6-dicarboxylic acid hydrochloride] has an IC50 [1] of 18.6 ± 3.9 nM, an IC50 [2] of 13.9 ± 2.4 nM and an IC50 [3] of 1360 ± 433 nM. The ED60 ([4]; ip) was 7.3 mg/kg and the “Maximal Decrease (1 − compound/control) * 100%” value ([4]; i.p.) was 47%.

For `Cl.N[C@]1(C(=O)O)[C@@H]2[C@@H](C(=O)O)[C@@H]2[C@H](Sc2ncc[nH]2)[C@H]1OCc1ccc(Cl)c(Cl)c1` [Example 8, (1R,2R,3S,4S,5R,6R)-2-Amino-3-[(3,4-dichlorobenzyl)oxy]-4-(1H-imidazol-2-ylsulfanyl)bicyclo[3.1.0]hexane-2,6-dicarboxylic acid hydrochloride], the IC50 [2] was 26 ± 0.5 nM, the IC50 [3] was 2580 nM and the ED60 ([4]; ip) was 9.1 mg/kg. The “Maximal Decrease (1 − compound/control) * 100%” value ([4]; i.p.) was 41%.

For `CCOC(=O)OCOC(=O)[C@H]1[C@@H]2[C@H](O)[C@@H](OCc3ccc(Cl)c(Cl)c3)[C@@](N)(C(=O)OCOC(=O)OCC)[C@H]12.Cl` [Example 11, Bis{[(ethoxycarbonyl)oxy]methyl} (1S,2R,3S,4S,5R,6R)-2-amino-3-[(3,4-dichlorobenzyl)oxy]-4-hydroxybicyclo[3.1.0]hexane-2,6-dicarboxylate hydrochloride], the ED60 ([4]; po) was 51.5 mg/kg and the “Maximal Decrease (1 − compound/control) * 100%” value ([4]; p.o.) was 32.9%.

`CC(C)C(=O)OCOC(=O)[C@H]1[C@@H]2[C@H](O)[C@@H](OCc3ccc(Cl)c(Cl)c3)[C@@](N)(C(=O)OCOC(=O)C(C)C)[C@H]12.Cl` [Example 12, Bis{[(2-methylpropanoyl)oxy]methyl} (1S,2R,3S,4S,5R,6R)-2-amino-3-[(3,4-dichlorobenzyl)oxy]-4-hydroxybicyclo[3.1.0]hexane-2,6-dicarboxylate hydrochloride] was tested, and the ED60 ([4]; po) was greater than 28 mg/kg and the “Maximal Decrease (1 − compound/control) * 100%” value ([4]; p.o.) was 7%.

In the case of `Cl.N[C@]1(C(=O)OCOC(=O)C2CC2)[C@@H]2[C@@H](C(=O)OCOC(=O)C3CC3)[C@@H]2[C@H](O)[C@H]1OCc1ccc(Cl)c(Cl)c1` [Example 13, Bis{[(cyclopropylcarbonyl)oxy]methyl} (1S,2R,3S,4S,5R,6R)-2-amino-3-[(3,4-dichlorobenzyl)oxy]-4-hydroxybicyclo[3.1.0]hexane-2,6-dicarboxylate hydrochloride], the ED60 ([4]; po) is reported as 11.3 mg/kg and the “Maximal Decrease (1 − compound/control) * 100%” value ([4]; p.o.) is reported as 62.8%.

In the case of `CNCCC(Oc1ccc(C(F)(F)F)cc1)c1ccccc1` (stereo not drawn) [Fluoxetine, fluoxetine, reference compound], the “Maximal Decrease (1 − compound/control) * 100%” value [5] is reported as 7.6% and the “Immobilization Time” value ([5]; vehicle 174) is reported as 161 s.
